{"source": "paper PMC7558399", "about": "“In Vitro Selective Growth-Inhibitory Activities of Phytochemicals, Synthetic Phytochemical Analogs, and Antibiotics against Diarrheagenic/Probiotic Bacteria and Cancer/Normal Intestinal Cells” (Pharmaceuticals, 2020)", "type_in_all_cases": "cell-based", "key": {"[1]": {"tested_on": "FHs 74 Int (ATCC CCL 241) intestinal normal cells", "assay": "MTT cytotoxicity assay, FHs 74 Int", "conditions": "FHs74Int, 72 h, FHs 74 Int (intestinal normal cells), MTT"}, "[2]": {"tested_on": "Clostridium difficile (DSMZ 12056)", "assay": "microbe, parasite or virus in culture", "conditions": "Clostridioides difficile, DSMZ12056; Clostridium difficile; […]; read-out: MIC"}, "[3]": {"tested_on": "diarrheagenic bacteria (12 strains)", "assay": "microbe, parasite or virus in culture", "conditions": "mean of 12 strains; >512 replaced with 1024; read-out: x¯ -DB ± SD: mean MIC for diarrheagenic bacteria"}, "[4]": {"tested_on": "E. coli 0175:H7 (NCTC 12900)", "assay": "microbe, parasite or virus in culture", "conditions": "Escherichia coli, NCTC12900"}, "[5]": {"tested_on": "Bifidobacterium bifidum (ATCC 29521)", "assay": "Broth microdilution MIC, B. bifidum", "conditions": "ATCC29521, growth inhibited by ≥80%, read-out: MIC"}, "[6]": {"tested_on": "Bacillus cereus (ATCC 14579)", "assay": "Broth microdilution MIC, B. cereus", "conditions": "ATCC14579, growth inhibited by ≥80%, median/mode, read-out: MIC"}, "[7]": {"tested_on": "21 strains (diarrheagenic and probiotic bacteria)", "assay": "organism not typed", "conditions": "any of the 21 strains"}, "[8]": {"tested_on": "intestinal cancer cells (HT29 and Caco-2)", "assay": "MTT cytotoxicity assay, mean for intestinal cancer cells"}, "[9]": {"tested_on": "S. enterica ssp. enterica serovar Typhimurium (ATCC 14028)", "assay": "Broth microdilution MIC, Salmonella Typhimurium", "conditions": "Salmonella Typhimurium, growth inhibited by ≥80%, read-out: MIC"}, "[10]": {"tested_on": "Lactobacillus reuteri (CCM 3625)", "assay": "Broth microdilution MIC, L. reuteri", "conditions": "Limosilactobacillus reuteri, CCM3625; Lactobacillus reuteri; growth inhibited by ≥80%; read-out: MIC"}, "[11]": {"tested_on": "Bifidobacterium breve (ATCC 15700)", "assay": "Broth microdilution MIC, B. breve", "conditions": "ATCC15700, growth inhibited by ≥80%, read-out: MIC"}, "[12]": {"tested_on": "Lactobacillus casei (DSMZ 20011)", "assay": "Broth microdilution MIC, L. casei", "conditions": "Lacticaseibacillus casei, DSMZ20011; Lactobacillus casei; growth inhibited by ≥80%; read-out: MIC"}, "[13]": {"tested_on": "Shigella flexneri (ATCC 12022)", "assay": "microbe, parasite or virus in culture", "conditions": "ATCC12022"}, "[14]": {"tested_on": "Bifidobacterium adolescentis (DSMZ 20087)", "assay": "Broth microdilution MIC, B. adolescentis", "conditions": "DSMZ20087, growth inhibited by ≥80%, read-out: MIC"}, "[15]": {"tested_on": "Clostridium perfringens (DSMZ 11778)", "assay": "microbe, parasite or virus in culture", "conditions": "DSMZ11778"}, "[16]": {"tested_on": "Lactobacillus rhamnosus (CCM 7091)", "assay": "Broth microdilution MIC, L. rhamnosus", "conditions": "Lacticaseibacillus rhamnosus, CCM7091; Lactobacillus rhamnosus; growth inhibited by ≥80%; read-out: MIC"}, "[17]": {"tested_on": "Escherichia coli (ATCC 25922)", "assay": "Broth microdilution MIC, E. coli", "conditions": "ATCC25922, growth inhibited by ≥80%, read-out: MIC"}, "[18]": {"tested_on": "Caco-2 (ATCC HTB 37) intestinal cancer cells", "assay": "MTT cytotoxicity assay, Caco-2", "conditions": "Homo sapiens, Caco-2, MTT, 72 h"}, "[19]": {"tested_on": "Bifidobacterium animalis spp. lactis (DSMZ 10140)", "assay": "Broth microdilution MIC, B. animalis spp. lactis", "conditions": "DSMZ10140; Bifidobacterium animalis spp. lactis; growth inhibited by ≥80%; read-out: MIC"}, "[20]": {"tested_on": "Salmonella enterica ssp. enterica serovar Enteritidis (ATCC 13076)", "assay": "Broth microdilution MIC, Salmonella Enteritidis", "conditions": "Salmonella Enteritidis, growth inhibited by ≥80%, read-out: MIC"}, "[21]": {"tested_on": "Bifidobacterium longum ssp. longum (DSMZ 20219)", "assay": "Broth microdilution MIC, B. longum ssp. longum", "conditions": "DSMZ20219; Bifidobacterium longum ssp. longum; growth inhibited by ≥80%; read-out: MIC"}, "[22]": {"tested_on": "probiotic bacteria (9 strains)", "assay": "Broth microdilution MIC, probiotic bacteria as a group (mean or range over strains)", "conditions": "mean of 9 strains; >512 replaced with 1024; read-out: x¯ -PB ± SD: mean MIC for probiotic bacteria"}, "[23]": {"tested_on": "HT29 (ATCC HTB 38) intestinal cancer cells", "assay": "MTT cytotoxicity assay, HT29", "conditions": "Homo sapiens, HT-29, HT29, MTT, 72 h"}, "[24]": {"tested_on": "Yersinia enterocolitica (ATCC 9610)", "assay": "Broth microdilution MIC, Y. enterocolitica", "conditions": "ATCC9610, growth inhibited by ≥80%, read-out: MIC"}, "[25]": {"tested_on": "Listeria monocytogenes (ATCC 7644)", "assay": "Broth microdilution MIC, L. monocytogenes", "conditions": "ATCC7644, growth inhibited by ≥80%, read-out: MIC"}, "[26]": {"tested_on": "Bacteroides fragilis (ATCC 25285)", "assay": "Broth microdilution MIC, B. fragilis", "conditions": "ATCC25285, growth inhibited by ≥80%, read-out: MIC"}, "[27]": {"tested_on": "Vibrio parahaemolyticus (ATCC 17802)", "assay": "Broth microdilution MIC, V. parahaemolyticus", "conditions": "ATCC17802, growth inhibited by ≥80%, read-out: MIC"}, "[28]": {"tested_on": "Enterococcus faecalis (ATCC 29212)", "assay": "Broth microdilution MIC, E. faecalis", "conditions": "ATCC29212, growth inhibited by ≥80%, read-out: MIC"}, "[29]": {"conditions": "read-out: IC80 ± SD (80% inhibitory concentration of proliferation)"}}}
{"smiles": "O=S(=O)(O)c1cc(I)c(O)c2ncccc12", "note": "[FRN, 7-iodo-8-hydroxyquinoline-5-sulfonic acid]", "values": [{"measurement": "IC50", "setting": "[1]; read-out: IC50 ± SD", "value": "22.6 ± 3.3", "unit": "µg/mL"}, {"measurement": "IC80", "setting": "[1]; [29]", "value": "46 ± 2.2", "unit": "µg/mL"}, {"measurement": "MIC", "setting": "[2]", "value": 64, "unit": "µg/mL"}, {"measurement": "MIC", "setting": "[3]", "value": "715 ± 388", "unit": "µg/mL"}, {"measurement": "MIC", "setting": "[4]", "value": "> 512", "unit": "µg/mL"}, {"measurement": "MIC", "setting": "[5]", "value": 512, "unit": "µg/mL"}, {"measurement": "MIC", "setting": "[6]", "value": 512, "unit": "µg/mL"}, {"measurement": "MIC", "setting": "[7]", "value": "≥ 64", "unit": "µg/mL"}, {"measurement": "IC50", "setting": "[8]; mean of HT29 and Caco-2, >512 replaced with 1024, read-out: x¯ -CC ± SD: mean IC50 for intestinal cancer cells", "value": "70.8 ± 16", "unit": "µg/mL"}, {"measurement": "IC80", "setting": "[8]; read-out: x¯ -CC ± SD: mean IC80 for intestinal cancer cells", "value": "145 ± 4.8", "unit": "µg/mL"}, {"measurement": "MIC", "setting": "[9]", "value": "> 512", "unit": "µg/mL"}, {"measurement": "MIC", "setting": "[10]", "value": 512, "unit": "µg/mL"}, {"measurement": "MIC", "setting": "[11]", "value": 512, "unit": "µg/mL"}, {"measurement": "MIC", "setting": "[12]", "value": 256, "unit": "µg/mL"}, {"measurement": "MIC", "setting": "[13]", "value": "> 512", "unit": "µg/mL"}, {"measurement": "MIC", "setting": "[14]", "value": 256, "unit": "µg/mL"}, {"measurement": "MIC", "setting": "[15]", "value": 64, "unit": "µg/mL"}, {"measurement": "MIC", "setting": "[16]", "value": 512, "unit": "µg/mL"}, {"measurement": "MIC", "setting": "[17]", "value": "> 512", "unit": "µg/mL"}, {"measurement": "IC50", "setting": "[18]; read-out: IC50 ± SD", "value": "55.2 ± 4.8", "unit": "µg/mL"}, {"measurement": "IC80", "setting": "[18]; [29]", "value": "140 ± 26", "unit": "µg/mL"}, {"measurement": "MIC", "setting": "[19]", "value": 512, "unit": "µg/mL"}, {"measurement": "MIC", "setting": "[20]", "value": "> 512", "unit": "µg/mL"}, {"measurement": "MIC", "setting": "[21]", "value": 256, "unit": "µg/mL"}, {"measurement": "MIC", "setting": "[22]", "value": "384 ± 148", "unit": "µg/mL"}, {"measurement": "IC50", "setting": "[23]; read-out: IC50 ± SD", "value": "86.3 ± 12", "unit": "µg/mL"}, {"measurement": "IC80", "setting": "[23]; [29]", "value": "149 ± 6", "unit": "µg/mL"}, {"measurement": "MIC", "setting": "[24]", "value": "> 512", "unit": "µg/mL"}, {"measurement": "MIC", "setting": "[25]", "value": 512, "unit": "µg/mL"}, {"measurement": "MIC", "setting": "[26]", "value": 128, "unit": "µg/mL"}, {"measurement": "MIC", "setting": "[27]", "value": 256, "unit": "µg/mL"}, {"measurement": "MIC", "setting": "[28]", "value": "> 512", "unit": "µg/mL"}]}
